From ChEMBL document CHEMBL5532757, “Design, synthesis, and biological evaluation of 1,2,4-oxadiazole-based derivatives as multitarget anti-Alzheimer agents” (RSC Med Chem, 2024)
pIC50: −log10 of the molar value. Counter-ions that a name gives are not always drawn. Activity calls are given as the source filed them. The rule behind the calls is not given here.

Assays:
[1] = Antioxidant activity assessed as DPPH radical scavenging activity measured after 30 mins by spectrophotometric analysis; type: functional
[2] = biological target: T1, Cholinesterase (Homo sapiens, UniProt P06276); assay: Inhibition of BChE (unknown origin) using butyrylthiocholine iodide as substrate incubated for 15 mins by DTNB reagent based ELISA
[3] = biological target: T2, Amine oxidase [flavin-containing] B (Homo sapiens, UniProt P27338); assay: Inhibition of human recombinant MAO-B expressed in baculovirus infected BTI insect cells measured after 30 to 90 sec by absorbance based assay; details: for inhibition (INH): human, bti, time 30-90 sec
T2 sequence (P27338 whole entry): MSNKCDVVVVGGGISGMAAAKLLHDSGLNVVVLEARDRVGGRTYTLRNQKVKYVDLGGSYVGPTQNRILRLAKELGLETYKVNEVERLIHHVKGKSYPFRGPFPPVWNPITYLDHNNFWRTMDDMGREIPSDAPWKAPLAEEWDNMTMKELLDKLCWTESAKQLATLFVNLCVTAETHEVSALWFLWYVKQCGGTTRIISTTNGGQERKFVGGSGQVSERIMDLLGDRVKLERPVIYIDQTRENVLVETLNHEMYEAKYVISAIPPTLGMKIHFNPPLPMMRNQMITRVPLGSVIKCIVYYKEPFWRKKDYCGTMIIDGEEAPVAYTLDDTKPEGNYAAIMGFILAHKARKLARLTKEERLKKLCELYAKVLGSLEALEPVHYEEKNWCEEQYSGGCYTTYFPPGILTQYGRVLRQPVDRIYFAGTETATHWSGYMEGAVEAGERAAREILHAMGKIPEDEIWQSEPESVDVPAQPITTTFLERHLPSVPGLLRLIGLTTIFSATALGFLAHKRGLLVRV

[4] = biological target: T3, Acetylcholinesterase (Homo sapiens, UniProt P22303); assay: Potency index, ratio of donepezil IC50 to test compound IC50 for inhibition of AChE (unknown origin) using acetylthiocholine iodide as substrate incubated for 15 mins by DTNB reagent based ELISA
[5] = Selectivity index, ratio of IC50 for inhibition of BChE (unknown origin) using butyrylthiocholine iodide as substrate to IC50 for inhibition of AChE (unknown origin) using acetylthiocholine iodide as substrate
[6] = biological target: T4, Amine oxidase [flavin-containing] A (Homo sapiens, UniProt P21397); assay: Inhibition of MAO-A (unknown origin) measured after 30 to 90 sec by absorbance based assay; details: for inhibition (INH): human, time 30-90 sec
T4 sequence (P21397 whole entry): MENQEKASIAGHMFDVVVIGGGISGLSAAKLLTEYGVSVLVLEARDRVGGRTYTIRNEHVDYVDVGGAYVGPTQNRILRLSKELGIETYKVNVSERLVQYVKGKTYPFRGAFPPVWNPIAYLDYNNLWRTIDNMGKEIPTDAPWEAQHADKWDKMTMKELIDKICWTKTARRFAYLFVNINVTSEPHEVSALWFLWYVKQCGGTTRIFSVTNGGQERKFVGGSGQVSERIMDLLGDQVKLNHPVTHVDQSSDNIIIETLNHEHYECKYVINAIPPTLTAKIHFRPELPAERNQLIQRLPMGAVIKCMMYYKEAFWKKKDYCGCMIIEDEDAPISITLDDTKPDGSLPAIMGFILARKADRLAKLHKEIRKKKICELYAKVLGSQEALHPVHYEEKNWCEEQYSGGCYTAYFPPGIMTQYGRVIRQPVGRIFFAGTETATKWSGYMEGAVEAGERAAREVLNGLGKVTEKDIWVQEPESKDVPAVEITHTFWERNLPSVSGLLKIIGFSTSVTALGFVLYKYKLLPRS

[7] = biological target: T3, Acetylcholinesterase; assay: Inhibition of AChE (unknown origin) using acetylthiocholine iodide as substrate incubated for 15 mins by DTNB reagent based ELISA
[8] = biological target: T3, Acetylcholinesterase; assay: Inhibition of human recombinant AChE using acetylthiocholine iodide as substrate preincubated for 5 mins followed by substrate addition and measured after 2 mins by absorbance based microplate reader
[9] = biological target: T1, Cholinesterase; assay: Inhibition of human BChE using butyrylthiocholine iodide as substrate preincubated for 5 mins followed by substrate addition and measured after 2 mins by absorbance based microplate reader

T1 sequence (P06276 whole entry): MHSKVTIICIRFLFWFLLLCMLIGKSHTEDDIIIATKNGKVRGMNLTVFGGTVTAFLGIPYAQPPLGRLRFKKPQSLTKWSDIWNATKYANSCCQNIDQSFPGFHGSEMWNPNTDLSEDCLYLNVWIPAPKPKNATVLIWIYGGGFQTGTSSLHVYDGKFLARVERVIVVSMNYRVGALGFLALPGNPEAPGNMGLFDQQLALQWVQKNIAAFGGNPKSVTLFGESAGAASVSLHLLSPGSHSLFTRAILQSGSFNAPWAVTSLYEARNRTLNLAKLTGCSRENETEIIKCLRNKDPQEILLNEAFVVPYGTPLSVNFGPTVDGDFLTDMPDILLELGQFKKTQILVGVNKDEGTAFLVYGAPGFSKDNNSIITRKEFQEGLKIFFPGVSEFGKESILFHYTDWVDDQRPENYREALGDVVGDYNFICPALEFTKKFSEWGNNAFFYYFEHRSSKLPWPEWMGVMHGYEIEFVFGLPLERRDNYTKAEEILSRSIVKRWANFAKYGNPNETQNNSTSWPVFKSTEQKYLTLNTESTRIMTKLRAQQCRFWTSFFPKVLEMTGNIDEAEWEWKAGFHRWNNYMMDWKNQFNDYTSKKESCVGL
T3 sequence (P22303 whole entry): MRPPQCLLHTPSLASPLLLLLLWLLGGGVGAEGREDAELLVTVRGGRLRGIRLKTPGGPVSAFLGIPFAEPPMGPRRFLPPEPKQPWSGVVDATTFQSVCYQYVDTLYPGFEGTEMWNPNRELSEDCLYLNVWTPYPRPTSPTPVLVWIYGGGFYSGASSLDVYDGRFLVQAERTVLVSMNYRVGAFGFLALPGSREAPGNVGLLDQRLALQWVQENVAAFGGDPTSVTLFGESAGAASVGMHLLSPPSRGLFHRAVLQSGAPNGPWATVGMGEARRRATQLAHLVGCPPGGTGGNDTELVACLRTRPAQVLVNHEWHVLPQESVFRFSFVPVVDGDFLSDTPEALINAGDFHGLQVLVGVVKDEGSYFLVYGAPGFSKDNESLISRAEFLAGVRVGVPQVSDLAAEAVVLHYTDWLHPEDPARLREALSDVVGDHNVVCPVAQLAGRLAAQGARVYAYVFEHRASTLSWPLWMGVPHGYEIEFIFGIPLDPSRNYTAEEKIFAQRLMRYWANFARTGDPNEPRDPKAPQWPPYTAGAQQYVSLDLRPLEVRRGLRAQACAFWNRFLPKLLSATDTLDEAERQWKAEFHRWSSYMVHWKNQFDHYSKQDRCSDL

Question: For `Cc1cc(NS(=O)(=O)c2ccc(NC(=O)COc3ccccc3-c3nc(-c4ccccc4)no3)cc2)no1`, which Activity [1] is on record?
Answer: inactive

Question: What about the pIC50 [2] of the same compound?
Answer: 4.57

Question: What about the “inhibition (INH)” value [3] of the same compound?
Answer: Not Active

Question: And the Ratio IC50 [4]?
Answer: 1.01

Question: What about the Ratio IC50 [5] of the same compound?
Answer: 283

Question: And the “inhibition (INH)” value [6]?
Answer: Not Active

Question: And the pIC50 [7]?
Answer: 7.03

Question: Which results are given for `CC(CCCCn1c(=O)c2c(ncn2C)n(C)c1=O)=NNC(=O)COc1ccccc1-c1nc(-c2ccccc2)no1`?
Answer: Activity [1]: inactive; pIC50 [2]: 4.82; inhibition (INH) [3]: Not Active; Ratio IC50 [4]: 1.01; Ratio IC50 [5]: 159; inhibition (INH) [6]: Not Active; pIC50 [7]: 7.03

Question: With `CCCNC(C)C(=O)Nc1c(C)csc1-c1nc(Cc2ccccc2)no1` (centres undefined) as the compound, how does the pIC50 [1] read?
Answer: 2.87

Question: What about the pIC50 [2] of the same compound?
Answer: 4.38

Question: And the pIC50 [3]?
Answer: 4.13

Question: What about the Ratio IC50 [4] of the same compound?
Answer: 1.01

Question: And the Ratio IC50 [5]?
Answer: 856

Question: And the pIC50 [6]?
Answer: 3.71

Question: What about the pIC50 [7] of the same compound?
Answer: 7.32

Question: With `Cc1cc(NS(=O)(=O)c2ccc(-n3cc(COc4ccccc4-c4nc(-c5ccccc5)no4)nn3)cc2)no1` as the compound, how does the pIC50 [1] read?
Answer: 4.25

Question: And the pIC50 [2]?
Answer: 4.58

Question: What about the “inhibition (INH)” value [3] of the same compound?
Answer: Not Active

Question: What about the Ratio IC50 [4] of the same compound?
Answer: 1.01

Question: And the Ratio IC50 [5]?
Answer: 250

Question: And the “inhibition (INH)” value [6]?
Answer: Not Active

Question: And the pIC50 [7]?
Answer: 6.98

Question: For `Cc1cc(NS(=O)(=O)c2ccc(-n3cc(COc4ccccc4-c4nc(-c5ccc(C(F)(F)F)cc5)no4)nn3)cc2)no1`, which Activity [1] is on record?
Answer: inactive

Question: What about the inhibition [2] of the same compound?
Answer: inactive

Question: What about the “inhibition (INH)” value [3] of the same compound?
Answer: Not Active

Question: What about the pIC50 [6] of the same compound?
Answer: 3.56

Question: What about the inhibition [7] of the same compound?
Answer: inactive

Question: With `OC(CCN1CCCCC1)(c1ccccc1)C1CC2C=CC1C2` (centres undefined) [BIPERIDEN HYDROCHLORIDE] as the compound, how does the pIC50 [3] read?
Answer: 3.58

Question: What does the source list for `CCCNC(C)C(=O)Nc1c(C)csc1-c1nc(-c2ccccc2N)no1` (centres undefined)?
Answer: pIC50 [1]: 3.02; pIC50 [2]: 4.26; pIC50 [3]: 3.54; Ratio IC50 [4]: 1.01; Ratio IC50 [5]: 449; pIC50 [6]: 3.61; pIC50 [7]: 6.92

Question: For `CCCNC(C)C(=O)Nc1c(C)csc1-c1nc(C)no1` (centres undefined), which Activity [1] is on record?
Answer: inactive

Question: And the pIC50 [2]?
Answer: 3.90

Question: What about the “inhibition (INH)” value [3] of the same compound?
Answer: Not Active

Question: And the Ratio IC50 [5]?
Answer: 622

Question: What about the pIC50 [6] of the same compound?
Answer: 2.90

Question: And the pIC50 [7]?
Answer: 6.70

Question: What does the source list for `Nc1ccc(-c2nc(-c3ccccc3N)no2)cc1`?
Answer: Activity [1]: inactive; pIC50 [2]: 4.07; inhibition (INH) [3]: Not Active; Ratio IC50 [5]: 427; inhibition (INH) [6]: Not Active; pIC50 [7]: 6.70

Question: With `Cc1noc(-c2ccc(N)cc2)n1` as the compound, how does the pIC50 [1] read?
Answer: 3.98

Question: What about the pIC50 [2] of the same compound?
Answer: 3.86

Question: What about the “inhibition (INH)” value [3] of the same compound?
Answer: Not Active

Question: What about the Ratio IC50 [4] of the same compound?
Answer: 1.01

Question: And the Ratio IC50 [5]?
Answer: 1320

Question: What about the “inhibition (INH)” value [6] of the same compound?
Answer: Not Active

Question: What about the pIC50 [7] of the same compound?
Answer: 6.98

Question: For `CC(=NNC(=O)COc1ccccc1-c1nc(Cc2ccccc2)no1)c1nnn(-c2ccc(S(N)(=O)=O)cc2)c1C`, which Activity [1] is on record?
Answer: inactive

Question: And the inhibition [2]?
Answer: inactive

Question: And the “inhibition (INH)” value [3]?
Answer: Not Active

Question: What about the “inhibition (INH)” value [6] of the same compound?
Answer: Not Active

Question: And the inhibition [7]?
Answer: inactive

Question: Which results are given for `Cc1cc(=O)oc2cc(OCc3ccc(-c4noc([C@@H]5CCCN5)n4)cc3)ccc12`?
Answer: pIC50 [8]: 4.11; pIC50 [9]: 5.09

Question: For `CC(CCCCn1c(=O)c2c(ncn2C)n(C)c1=O)=NNC(=O)COc1ccccc1-c1nc(Cc2ccccc2)no1`, which Activity [1] is on record?
Answer: inactive

Question: And the inhibition [2]?
Answer: inactive

Question: And the “inhibition (INH)” value [3]?
Answer: Not Active

Question: And the pIC50 [6]?
Answer: 3.02

Question: And the inhibition [7]?
Answer: inactive

Question: With `O=C1O[C@H]([C@@H](O)CO)C(O)=C1O` [ASCORBIC ACID] as the compound, how does the pIC50 [1] read?
Answer: 4.13

Question: With `CCCCOc1cc(-c2nc(-c3ccccc3)no2)ccc1N` as the compound, how does the pIC50 [1] read?
Answer: 4.23

Question: And the pIC50 [2]?
Answer: 4.94

Question: And the “inhibition (INH)” value [3]?
Answer: Not Active

Question: And the Ratio IC50 [5]?
Answer: 60.3

Question: And the “inhibition (INH)” value [6]?
Answer: Not Active

Question: And the pIC50 [7]?
Answer: 6.72

Question: With `CCCCOc1cc(-c2nc(C)no2)ccc1N` as the compound, how does the Activity [1] read?
Answer: inactive

Question: What about the pIC50 [2] of the same compound?
Answer: 4.32

Question: What about the “inhibition (INH)” value [3] of the same compound?
Answer: Not Active

Question: And the Ratio IC50 [4]?
Answer: 1.01

Question: What about the Ratio IC50 [5] of the same compound?
Answer: 3010

Question: And the “inhibition (INH)” value [6]?
Answer: Not Active

Question: And the pIC50 [7]?
Answer: 7.80

Question: With `CCCNC(C)C(=O)Nc1c(C)csc1-c1nc(-c2ccccc2)no1` (centres undefined) as the compound, how does the pIC50 [1] read?
Answer: 2.94

Question: And the pIC50 [2]?
Answer: 4.48

Question: And the pIC50 [3]?
Answer: 3.65

Question: And the Ratio IC50 [4]?
Answer: 1.01

Question: What about the Ratio IC50 [5] of the same compound?
Answer: 325

Question: What about the pIC50 [6] of the same compound?
Answer: 3.42

Question: And the pIC50 [7]?
Answer: 6.99

Question: Which results are given for `Cc1cc(NS(=O)(=O)c2ccc(-n3cc(COc4ccccc4-c4nc(Cc5ccccc5)no4)nn3)cc2)no1`?
Answer: Activity [1]: inactive; inhibition [2]: inactive; inhibition (INH) [3]: Not Active; Ratio IC50 [4]: 1.01; pIC50 [6]: 3.27; pIC50 [7]: 6.99
